What was measured:
Test in all cases: relative viability (nuclei count vs DMSO), 5 days (fraction); higher = more cells survive
[1] = compound: CC1=C(C(=O)N2C=CSC2=N1)CCN3CCC(=C(C4=CC=CC=C4)C5=CC=C(C=C5)F)CC3 + NC(=O)Nc1cc(-c2cccc(F)c2)sc1C(=O)N[C@H]1CCCNC1 [AZD7762] (partner 0.2 µM)
In short: (§1)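 Lung cancer cell lines in 1536-well plates got either a single drug or a fixed anchor-drug dose together with five library-drug doses (not always all listed) in √10 steps, by pin tool, on the day after seeding. Nuclei were counted after 5 days, and relative viability is the treated-to-vehicle ratio of nuclei counts. Values are medians of duplicate plates.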

[2] = compound: CC1=C(C(=O)N2C=CSC2=N1)CCN3CCC(=C(C4=CC=CC=C4)C5=CC=C(C=C5)F)CC3 + Nc1ncn([C@H]2C[C@H](O)[C@@H](CO)O2)c(=O)n1 [Decitabine] (partner 2 µM)
In short: as §1

[3] = compound: CC1=C(C(=O)N2C=CSC2=N1)CCN3CCC(=C(C4=CC=CC=C4)C5=CC=C(C=C5)F)CC3 + CS(=O)(=O)CCNCc1ccc(-c2ccc3ncnc(Nc4ccc(OCc5cccc(F)c5)c(Cl)c4)c3c2)o1 [Lapatinib] (partner 2 µM)
In short: as §1

[4] = compound: CC1=C(C(=O)N2C=CSC2=N1)CCN3CCC(=C(C4=CC=CC=C4)C5=CC=C(C=C5)F)CC3 + O=C(c1cc(Cc2n[nH]c(=O)c3ccccc23)ccc1F)N1CCN(C(=O)C2CC2)CC1 [Olaparib] (partner 8 µM)
In short: as §1

Row | Cell Line | relative viability ([1]; first compound 0.08 µM) | relative viability ([1]; first compound 0.253 µM) | relative viability ([1]; first compound 0.8 µM) | relative viability ([1]; first compound 2.53 µM) | relative viability ([1]; first compound 8 µM) | relative viability ([2]; first compound 0.08 µM) | relative viability ([2]; first compound 0.253 µM) | relative viability ([2]; first compound 0.8 µM) | relative viability ([2]; first compound 2.53 µM) | relative viability ([2]; first compound 8 µM) | relative viability ([3]; first compound 0.08 µM) | relative viability ([3]; first compound 0.253 µM) | relative viability ([3]; first compound 0.8 µM) | relative viability ([3]; first compound 2.53 µM) | relative viability ([3]; first compound 8 µM) | relative viability ([4]; first compound 0.08 µM) | relative viability ([4]; first compound 0.253 µM) | relative viability ([4]; first compound 0.8 µM) | relative viability ([4]; first compound 2.53 µM) | relative viability ([4]; first compound 8 µM)
1 | 201T | 0.718 | 0.513 | 0.579 | 0.621 | 0.586 | 0.884 | 0.89 | 0.845 | 0.9 | 0.804 | 1.12 | 1.08 | 0.999 | 1.09 | 1.11 | 0.941 | 0.791 | 0.824 | 0.92 | 0.884
2 | A-427 | 0.675 | 0.678 | 0.67 | 0.633 | 0.674 | 0.452 | 0.654 | 0.546 | 0.592 | 0.595 | 1.12 | 0.962 | 0.994 | 1.15 | 1.08 | 0.779 | 0.74 | 0.723 | 0.803 | 0.658
3 | ABC-1 | 0.751 | 0.746 | 0.791 | 0.766 | 0.677 | 1.2 | – | 1.04 | 1.18 | 1.02 | 1.11 | 1.18 | 1.14 | 1.3 | 0.674 | 0.836 | – | 0.99 | 1.01 | 0.536
4 | BEN | 0.732 | 0.677 | 0.638 | 0.638 | 0.651 | 0.807 | 0.703 | 0.702 | 0.737 | 0.708 | 0.507 | 0.626 | 0.798 | 0.757 | 0.53 | 1.07 | 1.22 | 1.09 | 1.06 | 0.89
5 | CAL-12T | 0.605 | 0.751 | 0.576 | 0.699 | 0.503 | – | – | – | – | – | – | 0.588 | 0.754 | 0.668 | 0.644 | 0.724 | 0.718 | 0.79 | 0.763 | 0.6
6 | COR-L23 | – | – | – | – | – | 0.415 | 0.498 | 0.405 | 0.484 | 0.368 | 1.13 | 1.1 | 1.12 | 0.921 | 0.638 | 0.311 | 0.32 | 0.344 | 0.376 | 0.31
7 | COR-L 105 | – | – | – | – | – | 0.59 | 0.629 | 0.71 | 0.719 | 0.509 | 0.33 | 0.443 | 0.336 | 0.379 | 0.401 | 0.542 | 0.718 | 0.633 | 0.753 | 0.609
8 | Calu-6 | – | – | – | – | – | – | – | – | – | – | 1.04 | 0.925 | 1.1 | 1.4 | 0.817 | 0.475 | 0.602 | 0.642 | 0.573 | 0.462
9 | ChaGo-K-1 | 0.763 | 0.919 | 0.925 | 0.928 | 0.694 | 0.495 | 0.548 | 0.52 | 0.629 | 0.46 | – | – | – | – | – | 0.451 | 0.415 | 0.411 | 0.458 | 0.416
10 | EBC-1 | – | – | – | – | – | – | – | – | – | – | 0.196 | – | 0.212 | 0.191 | 0.225 | 0.596 | 0.756 | 0.777 | 0.772 | 0.463

Reference: the supplement of paper PMC10307832
